In patent publication US20230089867A1, “CYCLIC PENTAMER COMPOUNDS AS PROPROTEIN CONVERTASE SUBTILISIN/KEXIN TYPE 9 (PCSK9) INHIBITORS FOR THE TREATMENT OF METABOLIC DISORDER” (Novartis AG, priority 2018, published 2023):

Molecular target: human PCSK9 (Homo sapiens, UniProt Q8NBP7)
Experiment: PCSK9 ligand binding TR-FRET assay (interference with binding of human PCSK9 to human LDLR)
Settings: for Max % inhibition: PCSK9 FRET assay, efficacy (Amax), 100% = 1 uM unlabeled human PCSK9, 0% = DMSO; for IC50: TR-FRET, human PCSK9 Alexa Fluor 647 / human LDLR extracellular domain-Europium Kryptate, read-out: PCSK9 FRET Assay IC50
Method: The PCSK9 binding of the compounds of the disclosure were measured using a time resolved fluorescence resonance energy transfer (TR-FRET) assay. This time resolved fluorescence resonance energy transfer (TR-FRET) assay measures the ability of a compound of the present disclosure to interfere with the binding of human PCSK9 to human LDLR, providing measures of both potency (IC50) and efficacy (Amax).
These solutions were pipetted into columns 1 and 11 of the compound plate. Threefold serial dilutions were generated in columns 2-10 and 12-20 of the compound plate by transferring 10 uL into 20 uL of DMSO. Columns 21 and 22 of the compound plate were negative controls containing DMSO alone.
An intermediate plate was generated in a Greiner V bottom plate by transferring 8 uL from each well of the master plate into a corresponding well containing 92 uL of assay buffer and mixing thoroughly.
A Proxi plate-low volume assay plate was used for the assay. […] For the positive control wells in columns 23 and 24 of the plate, 5 uL of unlabeled human PCSK9 was added at 4 uM in assay buffer containing 8% DMSO. Following a 30 minute incubation, 5 uL of 4 nM Human LDLR extracellular domain-Europium Kryptate was added and the mixture was incubated for an additional 2 hours.
The FRET ratio (FRET/Europium) was used for calculations.
Data is expressed as percent inhibition: (value−0%)/(100%−0%).

Chain of human PCSK9 (Q8NBP7 153-692): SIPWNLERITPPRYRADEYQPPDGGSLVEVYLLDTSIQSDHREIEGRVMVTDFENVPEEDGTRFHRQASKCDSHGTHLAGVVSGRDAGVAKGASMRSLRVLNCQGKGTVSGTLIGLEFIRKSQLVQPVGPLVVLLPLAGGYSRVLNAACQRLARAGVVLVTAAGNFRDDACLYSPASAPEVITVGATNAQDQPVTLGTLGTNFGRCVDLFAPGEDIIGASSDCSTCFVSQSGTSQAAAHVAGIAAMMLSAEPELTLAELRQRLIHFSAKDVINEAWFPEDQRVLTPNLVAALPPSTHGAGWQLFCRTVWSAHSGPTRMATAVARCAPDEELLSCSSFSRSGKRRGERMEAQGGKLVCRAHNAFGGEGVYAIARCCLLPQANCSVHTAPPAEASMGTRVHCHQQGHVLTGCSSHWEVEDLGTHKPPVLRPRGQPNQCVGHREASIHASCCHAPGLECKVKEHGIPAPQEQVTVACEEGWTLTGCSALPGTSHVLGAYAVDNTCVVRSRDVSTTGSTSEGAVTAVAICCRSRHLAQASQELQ
Chain of human PCSK9 (Q8NBP7 31-152 partner limits assumed): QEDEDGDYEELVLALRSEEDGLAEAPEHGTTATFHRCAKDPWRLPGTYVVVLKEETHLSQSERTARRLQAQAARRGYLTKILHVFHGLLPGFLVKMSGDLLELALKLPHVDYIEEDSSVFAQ

Row | Compound | Max % inhibition [%] | IC50 [nM]
1 | COC[C@@H]1NC(=O)[C@H](C)N(Cc2ccc(Cl)cc2Oc2ccc(-n3cnc(C(=O)NCCO)c3C)cc2)C(=O)C[C@@H](Cc2ccccc2)C(=O)N(C)[C@@H](C)CNC(=O)C[C@H](Cc2ccc(Cl)cc2)N(C)C1=O [Compound 188, 1-(4-(2-(((2S,5S,8S,13S,16R)-16-benzyl-8-(4-chlorobenzyl)-5-(methoxymethyl)-2,7,13,14-tetramethyl-3,6,10,15,18-pentaoxo-1,4,7,11,14-pentaazacyclooctadecan-1-yl)methyl)-5-chlorophenoxy)phenyl)-N-(2-hydroxyethyl)-5-methyl-1H-imidazole-4-carboxamide] | 75.17 | 16.2
2 | C[C@H]1CNC(=O)C[C@H](Cc2ccc(Cl)cc2)N(C)C(=O)[C@H](CO)NC(=O)[C@H](C)N(Cc2ccc(Cl)cc2Oc2ccc3c(c2)C(=O)N(C2CCN(C)CC2)C3)C(=O)C[C@@H](Cc2ccccc2)C(=O)N1C [Compound 130, (2S,5S,8S,13S,16R)-16-benzyl-1-(4-chloro-2-((2-(1-methylpiperidin-4-yl)-3-oxoisoindolin-5-yl)oxy)benzyl)-8-(4-chlorobenzyl)-5-(hydroxymethyl)-2,7,13,14-tetramethyl-1,4,7,11,14-pentaazacyclooctadecane-3,6,10,15,18-pentaone] | 77.42 | 20.3
3 | COC[C@@H]1NC(=O)[C@H](C)N(Cc2ccc(Cl)cc2Oc2ccc(-c3nnc4n3CCNC4)cc2)C(=O)C[C@@H](Cc2ccccc2)C(=O)N(C)[C@@H](C)CNC(=O)C[C@H](Cc2ccc(Cl)cc2)N(C)C1=O [Compound 114, (2S,5S,8S,13S,16R)-16-benzyl-1-(4-chloro-2-(4-(5,6,7,8-tetrahydro-[1,2,4]triazolo[4,3-a]pyrazin-3-yl)phenoxy)benzyl)-8-(4-chlorobenzyl)-5-(methoxymethyl)-2,7,13,14-tetramethyl-1,4,7,11,14-pentaazacyclooctadecane-3,6,10,15,18-pentaone] | 57.46 | 4.5
4 | COC[C@@H]1NC(=O)[C@H](C)N(Cc2ccc(Cl)cc2Oc2ccc(-c3cnc4n3CCN(C(=O)[C@H]3CCOC3)C4)cc2)C(=O)C[C@@H](Cc2ccccc2)C(=O)N(C)[C@@H](C)CNC(=O)C[C@H](Cc2ccc(Cl)cc2)N(C)C1=O [Compound 162, (2S,5S,8S,13S,16R)-16-benzyl-1-(4-chloro-2-(4-(7-((S)-tetrahydrofuran-3-carbonyl)-5,6,7,8-tetrahydroimidazo[1,2-a]pyrazin-3-yl)phenoxy)benzyl)-8-(4-chlorobenzyl)-5-(methoxymethyl)-2,7,13,14-tetramethyl-1,4,7,11,14-pentaazacyclooctadecane-3,6,10,15,18-pentaone] | 91.41 | 2.9
5 | COC[C@@H]1NC(=O)[C@H](C)N(Cc2ccc(Cl)cc2Oc2ccc(-c3cnc(CN(C)C)n3C)cc2)C(=O)C[C@@H](Cc2ccccc2)C(=O)N(C)[C@@H]2C[C@@H]2NC(=O)C[C@H](Cc2ccc(Cl)cc2)N(C)C1=O [Compound 77, (1S,5S,8S,11S,15R,18R)-15-benzyl-12-(4-chloro-2-(4-(2-((dimethylamino)methyl)-1-methyl-1H-imidazol-5-yl)phenoxy)benzyl)-5-(4-chlorobenzyl)-8-(methoxymethyl)-6,11,17-trimethyl-2,6,9,12,17-pentaazabicyclo[16.1.0]nonadecane-3,7,10,13,16-pentaone] | 104.08 | 9
6 | COC[C@@H]1NC(=O)[C@H](C)N(Cc2ccc(Cl)cc2Oc2ccc(-c3cnc(CN(C)C)n3C)cc2)C(=O)C[C@@H](Cc2ccccc2)C(=O)N(C)[C@@H](C(=O)OC)CNC(=O)C[C@H](Cc2ccc(Cl)cc2)N(C)C1=O [Compound 71, (2S,5S,8S,13R,16R)-methyl 16-benzyl-1-(4-chloro-2-(4-(2-((dimethylamino)methyl)-1-methyl-1H-imidazol-5-yl)phenoxy)benzyl)-8-(4-chlorobenzyl)-5-(methoxymethyl)-2,7,14-trimethyl-3,6,10,15,18-pentaoxo-1,4,7,11,14-pentaazacyclooctadecane-13-carboxylate] | 102.12 | 12.9

These reach a lower IC50. Values come first.

Row | Max % inhibition [%] | IC50 [nM] | Compound
7 | 97.38 | 0.9 | C[C@H]1C(=O)N[C@@H](CO)C(=O)N(C)[C@@H](Cc2ccc(Cl)cc2)CC(=O)N[C@H]2CCCC[C@@H]2N(C)C(=O)[C@H](Cc2ccccc2)CC(=O)N1Cc1ccc(Cl)cc1Oc1ccc(-c2cnc(CN(C)C)n2C)cc1 [Compound 243, (4S,7S,10S,14R,16aS,20aS)-14-benzyl-11-(4-chloro-2-(4-(2-((dimethylamino)methyl)-1-methyl-1H-imidazol-5-yl)phenoxy)benzyl)-4-(4-chlorobenzyl)-7-(hydroxymethyl)-5,10,16-trimethylhexadecahydrobenzo[l][1,4,7,11,14]pentaazacyclooctadecine-2,6,9,12,15(3H)-pentaone]
8 | 103.15 | 1.8 | COC[C@@H]1NC(=O)[C@H](C)N(Cc2ccc(Cl)cc2Oc2ccc(-c3cnc(CN(C)C)n3C)cc2)C(=O)C[C@@H](Cc2ccccc2)C(=O)N(C)C[C@H](C)NC(=O)C[C@H](Cc2ccc(Cl)cc2)N(C)C1=O [Compound 32, (2S,5S,8S,12S,16R)-16-benzyl-1-(4-chloro-2-(4-(2-((dimethylamino)methyl)-1-methyl-1H-imidazol-5-yl)phenoxy)benzyl)-8-(4-chlorobenzyl)-5-(methoxymethyl)-2,7,12,14-tetramethyl-1,4,7,11,14-pentaazacyclooctadecane-3,6,10,15,18-pentaone]
9 | 100.63 | 0.8 | COC[C@@H]1NC(=O)[C@H](COC)N(Cc2ccc(Cl)cc2Oc2ccc(-c3cnc(CN(C)C)n3C)cc2)C(=O)C[C@@H](Cc2ccccc2)C(=O)N(C)[C@H]2CCCC[C@@H]2NC(=O)C[C@H](Cc2ccc(Cl)cc2)N(C)C1=O [Compound 234, (4S,7S,10S,14R,16aS,20aS)-14-benzyl-11-(4-chloro-2-(4-(2-((dimethylamino)methyl)-1-methyl-1H-imidazol-5-yl)phenoxy)benzyl)-4-(4-chlorobenzyl)-7,10-bis(methoxymethyl)-5,16-dimethylhexadecahydrobenzo[l][1,4,7,11,14]pentaazacyclooctadecine-2,6,9,12,15(3H)-pentaone]
10 | 100.16 | 1.8 | CCc1ccc(CN2C(=O)C[C@@H](Cc3ccccc3)C(=O)N(C)[C@H]3CCCC[C@@H]3NC(=O)C[C@H](Cc3ccc(Cl)cc3)N(C)C(=O)[C@H](COC)NC(=O)[C@@H]2C)c(Oc2ccc(-c3cnc(CN4CCCC4)n3C)cc2)c1 [Compound 223, (4S,7S,10S,14R,16aS,20aS)-14-benzyl-4-(4-chlorobenzyl)-11-(4-ethyl-2-(4-(1-methyl-2-(pyrrolidin-1-ylmethyl)-1H-imidazol-5-yl)phenoxy)benzyl)-7-(methoxymethyl)-5,10,16-trimethylhexadecahydrobenzo[l][1,4,7,11,14]pentaazacyclooctadecine-2,6,9,12,15(3H)-pentaone]
11 | 114.68 | 0.9 | CCc1ccc(CN2C(=O)C[C@@H](Cc3ccccc3)C(=O)N(C)[C@H]3CCCC[C@@H]3NC(=O)C[C@H](Cc3ccc(Cl)cc3)N(C)C(=O)[C@H](COC)NC(=O)[C@@H]2C)c(Oc2ccc(-c3cnc([C@@H](C)N(C)C)n3C)cc2)c1 [Compound 85, (4S,7S,10S,14R,16aS,20aS)-14-benzyl-4-(4-chlorobenzyl)-11-(2-(4-(2-((R)-1-(dimethylamino)ethyl)-1-methyl-1H-imidazol-5-yl)phenoxy)-4-ethylbenzyl)-7-(methoxymethyl)-5,10,16-trimethylhexadecahydrobenzo[l][1,4,7,11,14]pentaazacyclooctadecine-2,6,9,12,15(3H)-pentaone]
12 | 99.18 | 1.7 | COC[C@@H]1NC(=O)[C@H](C)N(Cc2ccc(Cl)cc2Oc2ccc(-c3cnc(CN4CCCC4)n3C)cc2)C(=O)C[C@@H](Cc2ccccc2)C(=O)N(C)[C@@H](CCF)CNC(=O)C[C@H](Cc2ccc(Cl)cc2)N(C)C1=O [Compound 83, (2S,5S,8S,13S,16R)-16-benzyl-1-(4-chloro-2-(4-(1-methyl-2-(pyrrolidin-1-ylmethyl)-1H-imidazol-5-yl)phenoxy)benzyl)-8-(4-chlorobenzyl)-13-(2-fluoroethyl)-5-(methoxymethyl)-2,7,14-trimethyl-1,4,7,11,14-pentaazacyclooctadecane-3,6,10,15,18-pentaone]
13 | 100.65 | 2.3 | COC[C@@H]1NC(=O)[C@H](CC(F)(F)F)N(Cc2ccc(Cl)cc2Oc2ccc(-c3cnc(CN(C)C)n3C)cc2)C(=O)C[C@@H](Cc2ccccc2)C(=O)N(C)[C@@H](C)CNC(=O)C[C@H](Cc2ccc(Cl)cc2)N(C)C1=O [Compound 37, (2S,5S,8S,13S,16R)-16-benzyl-1-(4-chloro-2-(4-(2-((dimethylamino)methyl)-1-methyl-1H-imidazol-5-yl)phenoxy)benzyl)-8-(4-chlorobenzyl)-5-(methoxymethyl)-7,13,14-trimethyl-2-(2,2,2-trifluoroethyl)-1,4,7,11,14-pentaazacyclooctadecane-3,6,10,15,18-pentaone]
